From PubChem BioAssay AID264 (DTP/NCI, 2004)
Several values for one entry are separate records, joined by “and”; a condition that tells them apart may be missing. Equal values may be shown once. Records with an inconclusive call do not appear.

Test system: nude mice, LX-1 lung xenograft intrarenal, tumor weight T/C
Experiment: NCI In Vivo Anticancer Drug Screen. Data for tumor model Human Lung LX-1 Xenograft (intrarenal inoculation) in NU/NU Swiss (nude) mice
Conditions: endpoint: mean tumor weight change, higher = larger tumour
Summary of the method: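 Compound-treated mice carrying transplanted tumors were compared with vehicle-treated controls. Tumor size was the measured end point, and the value is the treated-group measurement divided by the control-group measurement (T/C).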

[1] = dose: 100.0 mg/kg/injection, schedule: Q04DX003 (sc), vehicle: saline with Tween-80
[2] = dose: 200.0 mg/kg/injection, schedule: Q04DX003 (sc), vehicle: saline with Tween-80
[3] = dose: 400.0 mg/kg/injection, schedule: Q04DX003 (sc), vehicle: saline with Tween-80
[4] = dose: 800.0 mg/kg/injection, schedule: Q04DX003 (sc), vehicle: saline with Tween-80
[5] = dose: 300.0 mg/kg/injection, schedule: Q04DX003 (sc), vehicle: Klucel (hydroxypropylcellulose) (HPC)
[6] = dose: 600.0 mg/kg/injection, schedule: Q04DX003 (sc), vehicle: Klucel (hydroxypropylcellulose) (HPC)
[7] = dose: 1200.0 mg/kg/injection, schedule: Q04DX003 (sc), vehicle: Klucel (hydroxypropylcellulose) (HPC)
[8] = dose: 50.0 mg/kg/injection, schedule: Q01DX010 (sc), vehicle: saline with Tween-80
[9] = dose: 100.0 mg/kg/injection, schedule: Q01DX010 (sc), vehicle: saline with Tween-80
[10] = dose: 400.0 mg/kg/injection, schedule: Q01DX010 (sc), vehicle: saline with Tween-80
[11] = dose: 4.0 mg/kg/injection, schedule: Q01DX010 (sc), vehicle: saline
[12] = dose: 6.25 mg/kg/injection, schedule: Q04DX003 (sc), vehicle: saline with Tween-80
[13] = dose: 12.5 mg/kg/injection, schedule: Q04DX003 (sc), vehicle: saline with Tween-80
[14] = dose: 25.0 mg/kg/injection, schedule: Q04DX003 (sc), vehicle: saline with Tween-80
[15] = dose: 300.0 mg/kg/injection, schedule: Q04DX003 (sc), vehicle: saline with Tween-80
[16] = dose: 1200.0 mg/kg/injection, schedule: Q04DX003 (sc), vehicle: saline with Tween-80

COc1cccc2c1C(=O)c1c(O)c3c(c(O)c1C2=O)CC(O)(C(=O)CO)CC3OC1CC(N)C(O)C(C)O1 (centres undefined)
T/C (dose: 12.0 mg/kg/injection, schedule: Q01DX010 (sc), vehicle: saline): 71 % of control | T/C (dose: 24.0 mg/kg/injection, schedule: Q01DX010 (sc), vehicle: saline): 24 % of control | T/C (dose: 25.0 mg/kg/injection, schedule: Q01DX010 (sc), vehicle: water): 71 % of control | T/C (dose: 37.5 mg/kg/injection, schedule: Q04DX003 (sc), vehicle: water): 82 % of control | T/C (dose: 48.0 mg/kg/injection, schedule: Q01DX010 (sc), vehicle: saline): 31 % of control | T/C (dose: 50.0 mg/kg/injection, schedule: Q01DX010 (sc), vehicle: water): 71 % of control | T/C (dose: 75.0 mg/kg/injection, schedule: Q04DX003 (sc), vehicle: water): 105 % of control | T/C (dose: 100.0 mg/kg/injection, schedule: Q01DX010 (sc), vehicle: water): 39 % of control | T/C (dose: 150.0 mg/kg/injection, schedule: Q04DX003 (sc), vehicle: water): 193 % of control | T/C (dose: 200.0 mg/kg/injection, schedule: Q01DX010 (sc), vehicle: water): 11 % of control | T/C (dose: 300.0 mg/kg/injection, schedule: Q04DX003 (sc), vehicle: water): 46 % of control

C/C=C/C=C1/OC(C)=C(C(C)=O)C1=O
T/C [1]: 107 % of control | T/C [2]: 97 % of control | T/C [3]: 110 % of control | T/C [4]: 92 % of control

CCC/C=C/C=C/C(=O)OC1/C(=C/C(=O)OC)CC2CC(C(C)O)OC(=O)CC(O)CC3CC(OC(C)=O)C(C)(C)C(O)(CC4C/C(=C/C(=O)OC)CC(/C=C/C(C)(C)C1(O)O2)O4)O3 (centres undefined)
T/C (dose: 0.25 mg/kg/injection, schedule: Q04DX003 (sc), vehicle: saline + alcohol): 112 % of control | T/C (dose: 0.5 mg/kg/injection, schedule: Q04DX003 (sc), vehicle: saline + alcohol): 96 % of control | T/C (dose: 1.0 mg/kg/injection, schedule: Q04DX003 (ip), vehicle: saline + alcohol): 96 % of control | T/C (dose: 1.0 mg/kg/injection, schedule: Q04DX003 (sc), vehicle: saline + alcohol): 59 % of control | T/C (dose: 2.0 mg/kg/injection, schedule: Q04DX003 (ip), vehicle: saline + alcohol): 119 % of control | T/C (dose: 2.0 mg/kg/injection, schedule: Q04DX003 (sc), vehicle: saline + alcohol): 27 % of control and 40 % of control | T/C (dose: 4.0 mg/kg/injection, schedule: Q04DX003 (ip), vehicle: saline + alcohol): 76 % of control | T/C (dose: 8.0 mg/kg/injection, schedule: Q04DX003 (ip), vehicle: saline + alcohol): 81 % of control | T/C (dose: 8.0 mg/kg/injection, schedule: Q04DX003 (sc), vehicle: saline + alcohol): 16 % of control | T/C (dose: 10.0 mg/kg/injection, schedule: Q04DX003 (ip), vehicle: saline + alcohol): 93 % of control

Cc1cc2cc3cc(C)c(N)cc3nc2cc1N
T/C [1]: 77 % of control | T/C [2]: 51 % of control | T/C [3]: 63 % of control | T/C [4]: 95 % of control

O=[N+]([O-])c1ccc(-n2[nH]nnc2=S)cc1
T/C (dose: 50.0 mg/kg/injection, schedule: Q04DX003 (sc), vehicle: Klucel (hydroxypropylcellulose) (HPC)): 92 % of control | T/C (dose: 100.0 mg/kg/injection, schedule: Q04DX003 (sc), vehicle: Klucel (hydroxypropylcellulose) (HPC)): 84 % of control | T/C (dose: 200.0 mg/kg/injection, schedule: Q04DX003 (sc), vehicle: Klucel (hydroxypropylcellulose) (HPC)): 95 % of control | T/C (dose: 400.0 mg/kg/injection, schedule: Q04DX003 (sc), vehicle: Klucel (hydroxypropylcellulose) (HPC)): 59 % of control

COc1cc(C(=O)c2cocc2C(=O)c2ccc3c(c2)OCO3)cc(OC)c1OC
T/C [5]: 160 % of control | T/C [6]: 80 % of control | T/C [7]: 94 % of control

CC(=O)OCC1OC(n2cc(CBr)nn2)C(OC(C)=O)C(OC(C)=O)C1OC(C)=O (centres undefined)
T/C [8]: 177 % of control | T/C [9]: 101 % of control | T/C [10]: 46 % of control

O=C1c2ccccc2C(=O)c2c(NCCNCCO)ccc(O)c21
T/C (dose: 12.5 mg/kg/injection, schedule: Q04DX003 (sc), vehicle: suspension in saline): 94 % of control | T/C (dose: 25.0 mg/kg/injection, schedule: Q04DX003 (sc), vehicle: saline): 90 % of control | T/C (dose: 25.0 mg/kg/injection, schedule: Q04DX003 (sc), vehicle: suspension in saline): 108 % of control | T/C (dose: 50.0 mg/kg/injection, schedule: Q04DX003 (sc), vehicle: saline): 74 % of control | T/C (dose: 50.0 mg/kg/injection, schedule: Q04DX003 (sc), vehicle: suspension in saline): 90 % of control | T/C (dose: 100.0 mg/kg/injection, schedule: Q04DX003 (sc), vehicle: saline): 61 % of control | T/C (dose: 100.0 mg/kg/injection, schedule: Q04DX003 (sc), vehicle: suspension in saline): 92 % of control | T/C (dose: 200.0 mg/kg/injection, schedule: Q04DX003 (sc), vehicle: saline): 93 % of control

CC(=O)O[C@@H]1[C@@H](O)C2=C3[C@]4(C)[C@@H]1C(C)(C)C(=O)C[C@@H]4[C@]3(O)[C@H](OC(C)=O)[C@@]1(C[C@@H]1C)C2=O
T/C (dose: 12.5 mg/kg/injection, schedule: Q01DX010 (sc), vehicle: saline with Tween-80): 104 % of control | T/C (dose: 25.0 mg/kg/injection, schedule: Q01DX010 (sc), vehicle: saline with Tween-80): 58 % of control | T/C [8]: 207 % of control

CC1=C(C)C(=O)O[C@@H]([C@](C)(O)[C@]2(O)CC[C@@]3(O)[C@@H]4C[C@H]5O[C@]56[C@@H](O)C=CC(=O)[C@]6(C)[C@H]4CC[C@]23C)C1
T/C [11]: 61 % of control | T/C (dose: 64.0 mg/kg/injection, schedule: Q01DX010 (sc), vehicle: saline): 121 % of control

O=NN(CCCl)C(=O)Oc1cc(Cl)c(Cl)cc1Cl
T/C [5]: 104 % of control | T/C [6]: 53 % of control | T/C [7]: 29 % of control

CCOC(=O)Nc1cc2c(c(N)n1)N=C(c1ccccc1)CN2
T/C (dose: 3.12 mg/kg/injection, schedule: Q04DX003 (sc), vehicle: saline with Tween-80): 68 % of control | T/C [12]: 82 % of control and 96 % of control | T/C [13]: 73 % of control | T/C [14]: 30 % of control and 54 % of control

Cc1cc(N/N=C/c2ccccn2)nc2ccccc12
T/C (dose: 150.0 mg/kg/injection, schedule: Q04DX003 (sc), vehicle: Klucel (hydroxypropylcellulose) (HPC)): 89 % of control | T/C [5]: 103 % of control | T/C [6]: 115 % of control | T/C [7]: 98 % of control

c1ccc(CN2CCOC2)cc1
T/C (dose: 50.0 mg/kg/injection, schedule: Q01DX010 (sc), vehicle: saline): 81 % of control | T/C (dose: 100.0 mg/kg/injection, schedule: Q01DX010 (sc), vehicle: saline): 165 % of control

COc1cc2c(cc1O)N=C[C@@H]1CCC(O)N1C2=O (mixture of isomers)
T/C [11]: 213 % of control

S=c1nc[nH]c2nc[nH]c12
T/C (dose: 6.25 mg/kg/injection, schedule: Q01DX010 (sc), vehicle: Klucel (hydroxypropylcellulose) (HPC)): 120 % of control | T/C (dose: 50.0 mg/kg/injection, schedule: Q01DX010 (sc), vehicle: Klucel (hydroxypropylcellulose) (HPC)): 51 % of control and 55 % of control

COc1cc2c(c(OC)c1OC)-c1ccc(OC)c(=O)cc1[C@@H](NC(=O)CCl)CC2
T/C (dose: 1.25 mg/kg/injection, schedule: Q04DX003 (sc), vehicle: saline with Tween-80): 76 % of control | T/C (dose: 2.5 mg/kg/injection, schedule: Q04DX003 (sc), vehicle: saline with Tween-80): 77 % of control | T/C (dose: 5.0 mg/kg/injection, schedule: Q04DX003 (sc), vehicle: saline with Tween-80): 42 % of control

O=Cc1c(O)c2ccccc2[nH]c1=O
T/C (dose: 150.0 mg/kg/injection, schedule: Q04DX003 (sc), vehicle: saline with Tween-80): 84 % of control | T/C [15]: 99 % of control | T/C (dose: 600.0 mg/kg/injection, schedule: Q04DX003 (sc), vehicle: saline with Tween-80): 90 % of control | T/C [16]: 50 % of control

C[CH2][Sn]([CH2]C)([CH2]C(=O)OC)[CH2]C(=O)OC
T/C [12]: 97 % of control | T/C [13]: 92 % of control | T/C [14]: 70 % of control

CCCCOC(=O)/C=C(\Br)C(=O)OCCCC
T/C [9]: 166 % of control | T/C (dose: 200.0 mg/kg/injection, schedule: Q01DX010 (sc), vehicle: saline with Tween-80): 281 % of control | T/C [10]: 251 % of control

S=c1[nH]cc2cnccn12
T/C [15]: 151 % of control | T/C [16]: 83 % of control | T/C (dose: 2400.0 mg/kg/injection, schedule: Q04DX003 (sc), vehicle: saline with Tween-80): 94 % of control
